This note sets out measurements from ChEMBL document CHEMBL3507680, “University of Dundee, Gates Library screen for HepG2 cell viability”.

The series can be described thus: Human HepG2 cell viability assay in 384 well format. Further details: dose 125 nL, time 70.5 hour; concentration not given beside the values. To be noted: HepG2 cells, read-out: Inhibition. Format: toxicity, cell-based.
`CN(C)C(=O)CN1C[C@@H]2CC[C@H](C1)N(C/C=C/c1ccc(F)cc1)C2`: the cytotoxicity at 70.5 h is -0.0436%.
As to `Cc1ccc(-c2cccc(N3CCC(NC4CCOCC4)CC3)c2)cc1`, the cytotoxicity at 70.5 h was -2.04%.
The figure for `N[C@H]1CCCN(S(=O)(=O)c2ccc(C(=O)NCC(F)F)cc2)C1` is 25.2%.
Take `Cc1c[nH]c(C(=O)N2CCn3nc(C(=O)NC4CC4)cc3C2)n1`: the cytotoxicity at 70.5 h was found to be 24.5%.
The figure for `CSc1nccc(NCc2cc3n(n2)CCCN(C(=O)C2CCC2)C3)n1` is 22.4%.
The figure for `O=C(CN1CCOC1=O)N1CCc2nnc(-c3ccccc3)n2CC1` is 11.7%.
Regarding `CC(C)C1CN(C(=O)c2ccc(Cl)cn2)CCCN1CC1CC1` (centres undefined), the cytotoxicity at 70.5 h was -6.77%.
With `CNS(=O)(=O)CCNc1cc(C)nc2cc(C)nn12`, the cytotoxicity at 70.5 h was -2.52%.
The figure for `COCCCN1C(=O)CC[C@H]2CN(c3nc4ccccc4s3)CC[C@H]21` is -3.23%; for `Cc1ccc(N2CCN(C(=O)CCc3n[nH]c(C)n3)CC2=O)cc1` it is -8.56%.
Turning to `CN(Cc1cc(C2CC2)[nH]n1)C(=O)C(c1cccnc1)N1CCCC1` (centres undefined), the cytotoxicity at 70.5 h was -3.32%.
The result for `COc1ncc(CN2CCC3(CCCN(CC4CCC4)C3)C2)cn1` (centres undefined) reads -1.38%.
Consider `CN(C)CCN(CC1CCCO1)S(=O)(=O)NCc1ccccc1` (centres undefined), for which the cytotoxicity at 70.5 h is -6.41%.
The result for `Cn1ccnc1-c1ccc(NC[C@H]2CCc3ccccc3O2)nn1` reads 18%.
The result for `Cc1nc2c(c(NCC(O)C(F)(F)F)n1)CCNCC2` (centres undefined) reads 11.7%.
The figure for `CC(C)OC(=O)N1CCC(c2nnc(Cn3ccnc3)n2C)CC1` is 20.7%; for `CCN1CC(CN(C)Cc2nc(-c3ccc(F)cc3F)oc2C)CC1=O` (centres undefined) it is 2.47%; for `OC1(CN2CCCC2)COCCN(c2noc(-c3ccccc3)n2)C1` (centres undefined) it is -11%.
As for `COC(=O)CC1C(=O)NCCN1c1nc2c(s1)c(C)nn2C` (centres undefined), the cytotoxicity at 70.5 h stood at 5.02%.
The figure for `Cc1cc(N2CCC(n3cc(CN4CCNCC4)nn3)CC2)ccn1` is 24.4%.
The figure for `COCCc1ncc(CN2CCCC(C(=O)c3ccccc3)C2)cn1` (centres undefined) is -26%; for `CCOCc1nc2c(c(NC(CC)c3ccnn3C)n1)CCNCC2` (centres undefined) it is 0.295%.
Take `Cc1ccc(CCNC(=O)CC2COCCN2S(=O)(=O)N(C)C)o1` (centres undefined): the cytotoxicity at 70.5 h came out at 13.5%.
The figure for `CN1CCN(S(=O)(=O)NCC2COc3ccccc3C2)CC1` (centres undefined) is -3.52%; for `COc1ccc(CCN2CC(NCc3ncc[nH]3)CC2=O)cc1` (centres undefined) it is -7.01%.
The figure for `O[C@@]1(CN2CCN(Cc3ccncc3)CC2)CCCN2CCCC[C@@H]21` is -9.72%; for `COc1cccc2c(=O)n(C3CCCNC3)cnc12` (centres undefined) it is -11.4%.
The figure for `Cc1nc(C2CCN(C(=O)c3ccc(Cl)s3)CC2)cc(=O)[nH]1` is -6.29%; for `COc1ccc(C[C@@H]2CC[C@H](CN(C)C3CCN(C)CC3)O2)cc1` it is -5.62%; for `COc1cccc(OCCc2nc3c(cc2C(N)=O)CCC3)c1` it is 1.85%.
In the case of `CSc1ccccc1CC1CCCS(=O)(=O)C1` (centres undefined), the cytotoxicity at 70.5 h was 3.79%.
The figure for `Cc1nonc1C1CCCN1C(=O)c1cn2ccsc2n1` (centres undefined) is -13.5%; for `c1cn(CCn2cnnc2)c(-c2cc3n(n2)CCCNC3)n1` it is -5.64%.
The result for `CC(=O)c1cc(CN2C[C@@H](CN3CCCC3)[C@@H](CO)C2)n(C)c1` reads -5.11%; that for `COCCc1nc(CN2CC(C)(c3ccccc3)CCC2=O)no1` (centres undefined), -2.58%; that for `COc1ccc(-n2c(CO)nc3ccccc32)cc1CO`, -6.11%.
The result for `COc1cc(F)ccc1-c1cc(N)ccn1` reads -0.436%.
For `CNc1cc(-c2ccc(COCCN)cc2)c2cc[nH]c2n1`, the cytotoxicity at 70.5 h is -13.6%.
The figure for `C[C@@H]1CN(Cc2nc(C(N)=O)no2)CC[C@@]1(O)C1CC1` is -14.8%; for `CCc1cc(NCCN2CCNC2=O)n2nccc2n1` it is 3.72%; for `OCCC1CN(c2ncnc3[nH]cnc23)CCN1Cc1ccccc1F` (centres undefined) it is 5.32%.
The result for `COc1ccc(C(=O)N2C[C@@H](NC(=O)N(C)C)[C@H](C(C)C)C2)c(OC)n1` reads -11.2%; that for `CN(CCC(C)(C)O)C(=O)C1CCC(=O)N(Cc2ccc(Cl)cc2)C1` (centres undefined), -5.36%.
The result for `CCCOCC1CCN(C(=O)c2cnc(-c3cccnc3)nc2O)C1` (centres undefined) reads -6.25%; that for `CCc1nc(C)c([C@H]2CN(C)C[C@@H]2C(=O)Nc2ccc3[nH]ncc3c2)[nH]1`, -5.87%; that for `COCCN1CCC(CN(C)c2nc3c(s2)c(C)nn3C)C1` (centres undefined), -3.25%.
Consider `CC(=O)C1(c2ccccc2)CCN(C(=O)c2ccn3nnnc3c2)CC1`, for which the cytotoxicity at 70.5 h is -13.3%.
The figure for `CC(Cc1cn(CCc2n[nH]c(=O)[nH]2)nn1)c1ccccc1` (centres undefined) is -7.35%; for `CO[C@H]1CN(C(C)C)C[C@@H]1NC(=O)Nc1cccc(SC)c1` it is 49.1%.
The figure for `N#Cc1cccc(N2CCC3(CCC(=O)N(CC4CCCO4)C3)CC2)n1` (centres undefined) is 0.613%; for `Nc1cnc(-c2cccc3c2CCNC3)cn1` it is -15.3%.
The result for `O=C(NC[C@H]1CCCO1)c1ccc(S(=O)(=O)N2C[C@@H]3C[C@H]2CN3)cc1` reads -1.62%; that for `CCN(CCn1c(=O)oc2ccccc21)CC1CCOCC1`, -2.32%; that for `O=C(CCn1cnnn1)N1CCCC(CO)(CCc2ccccc2)C1` (centres undefined), 18%.
As to `O=C1NCC2(CCCN(C(=O)Cn3nc4ccccc4n3)CC2)O1` (centres undefined), the cytotoxicity at 70.5 h worked out at 29.9%.
The figure for `CCc1cnc(N)nc1N1CCN(C(C)=O)CC1` is -15.8%; for `CN(Cc1ccccc1)c1ncccc1CNC1CCSCC1` it is -2.31%; for `COCCC1(C(=O)O)CCCN(CCc2ccccc2)C1` (centres undefined) it is -7.32%.
The result for `CCN1CCC(CC(=O)N(C)CC(=O)c2ccc(O)cc2)CC1` reads -8.66%; that for `COCCN(CC1CCCN(C2Cc3ccccc3C2)C1)C(=O)CO` (centres undefined), -10%.
The result for `CC(CN(C)Cc1cccc(-n2cccn2)c1)C(F)(F)F` (centres undefined) reads -1.16%; that for `Cc1ccc(-c2ccnc(N(C)CC3CCCO3)n2)c(C)n1` (centres undefined), -6.23%; that for `CC(=O)Nc1ncc(S(=O)(=O)N2CCN(C3CCCCC3)CC2)s1`, -5.13%.
With `CC(C)O[C@H]1CN(Cc2cnc3c(-c4ccccc4)cnn3c2)C[C@@H]1O`, the cytotoxicity at 70.5 h is -5.99%.
`CC1CCN(CCCNS(=O)(=O)Cc2ccccc2F)CC1`: the cytotoxicity at 70.5 h is 1.01%.
The figure for `CCN(CC)c1ccc(-c2ccc(C)c(S(N)(=O)=O)c2)nn1` is -8.22%; for `CCn1nc(C)c(CN(CCOC)C(=O)c2ccccc2N(C)C)c1C` it is -2.9%.
The figure for `CCc1cccc(OCCCN(C)C(=O)CN2CCNC2=O)c1` is 0.78%; for `O=S(=O)(Cc1ccccc1Cl)NCCCN1CCCC1` it is -5.39%.
The figure for `CCc1[nH]c2c(CNc3cnccn3)cc(F)cc2c1C` is -2.66%; for `CCCc1cnc(C)nc1N1CCC(F)(F)CC1` it is -9.65%; for `Cc1sc2nc(CCN)nc(N3CC(N4CCCCC4)C3)c2c1C` it is 26%.
With `Cc1nc(NCc2ccc(C)o2)cc(C2CCNCC2)n1`, the cytotoxicity at 70.5 h was -23.6%.
Consider `Nc1ccnc(C(=O)N2CCCC3(CCC(=O)N(C4CCCC4)C3)C2)c1` (centres undefined), for which the cytotoxicity at 70.5 h is -7.4%.
As to `Cc1ccccc1N1CCN(c2cc(N(C)C)ncn2)C(C)C1` (centres undefined), the cytotoxicity at 70.5 h is -9.42%.
The result for `CCC(=O)Nc1cccc(OCC(=O)N(C)CCCC2CCCO2)c1` (centres undefined) reads -3.54%; that for `Cc1ccc(C)c(OC(C)C(=O)NCc2cccnc2)c1` (centres undefined), -5.32%; that for `CCC(C(=O)NCc1ccncc1)N(c1ccccc1)S(C)(=O)=O` (centres undefined), -3.1%.
The result for `CCCNC(=O)c1cc(OC)c(OC)cc1N(C)S(C)(=O)=O` reads -8.53%; that for `COc1ccc(OCC(C)NS(C)(=O)=O)cc1` (centres undefined), -3.53%.
As to `O=C(N[C@@H]1CCN(Cc2cccc3nonc23)C[C@H]1O)c1cccnc1`, the cytotoxicity at 70.5 h is -13.7%.
The result for `COC(=O)C1CCN(C(=O)c2cccc(NS(C)(=O)=O)c2C)CC1` reads -7.56%; that for `CN(C)Cc1cn(CC2CCCN(c3nccc4occc34)C2)nn1` (centres undefined), -14.2%; that for `O=c1[nH]c(COc2ccccc2Cl)nc2c1CCNC2`, -4.85%.
The figure for `c1cnc(N2CCN(CCn3ccnc3-c3c[nH]cn3)CC2)nc1` is -6.35%; for `Cc1ccc(-c2noc(CCC3CCN(C)CC3)n2)nn1` it is -5.24%; for `CCC[C@H]1CN(c2nccc(NCC)n2)C[C@@H]1NS(=O)(=O)N(C)C` it is -7.09%.
On to `COc1nccnc1N1CCCC2(C1)C(=O)N(C)c1ccccc12` (centres undefined), for which the cytotoxicity at 70.5 h is -12.3%.
The figure for `COCC(=O)N1Cc2c(-c3cccc(C)c3)nc(N)nc2C1C` (centres undefined) is -9.82%; for `O=c1c2ccc(C(F)(F)F)cc2ncn1CCCN1CCCCC1CO` (centres undefined) it is 14.6%.
The figure for `Cc1ncc(CNC2CC(=O)N(CCc3cccc(Cl)c3)C2)n1C` (centres undefined) is -9.98%; for `CNC(=O)c1cccnc1N1CCN(Cc2ccccc2)C(CCO)C1` (centres undefined) it is -14.9%.
The figure for `Cc1nn2c(N3CCCC(C#N)C3)cc(-c3ccccc3)nc2c1C` (centres undefined) is 1.82%.
As to `CNC(=O)c1sccc1S(=O)(=O)NC`, the cytotoxicity at 70.5 h is -6.63%.
The figure for `Cc1nc(O)cc(CCNC(=O)CC[C@@H]2CCCN3CCCC[C@H]23)n1` is -9.84%; for `CC1CCN(C(=O)c2cccc(CN3CCOCC3)c2)CC1` it is -5.87%; for `CN1CCN(C(=O)c2cccc(CN3CCOCC3)c2)CC1` it is -2.6%.
In the case of `Nc1cc(N2CCC(c3cc(Cc4ccccc4)n[nH]3)CC2)ccn1`, the cytotoxicity at 70.5 h worked out at 2.05%.
The result for `COc1cc(CNCc2ccco2)ccc1OCCO` reads -5.33%.
